# Positions of bridges follow the written chain, without caps; N, C: chain ends. Non-standard residues stand in square brackets, D forms with d. Residues, ends and D or L forms follow the SMILES beside them. S5 = C=CCCC[C@](C)(N)C(=O)O
# Key:
# [1] = test system: human red blood cells (RBCs); conditions: 50 μM; ref our previous study; cited from earlier work
# [2] = Dynamic light scattering; assay type: physicochemical; conditions: 200 μM in 10 mM PBS; from lack of reliable DLS data and visibly clear solutions
compound,measurement,setting,value
CC[C@H](C)[C@H](NC(=O)[C@H](C)NC(=O)[C@H](CCCCN)NC(=O)[C@H](CO)NC(=O)[C@H](CCC(=O)O)NC(=O)[C@@H]1CCCN1C(C)=O)C(=O)N[C@@H](CCCCN)C(=O)N[C@@]1(C)CCCC=CCCC[C@@](C)(C(=O)N[C@H](C(=O)N[C@@H](CO)C(=O)N[C@@H](CCCCN)C(=O)N[C@@H](CCC(=O)O)C(=O)N[C@@H](CCCNC(=N)N)C(=O)N[C@@H](CO)C(=O)N[C@@H](CCCCN)C(=O)N[C@@H](CCCNC(=N)N)C(=O)N[C@@H](CO)C(=O)N2CCC[C@H]2C(N)=O)C(C)C)NC(=O)[C@H](CCCCN)NC(=O)[C@H](CC(C)C)NC(=O)[C@H](CC(C)C)NC1=O [stapled Ac-P9] (Ac-PESKAIK[S5]LLK[S5]VSKERSKRSP-NH2; staple 8-12),hemolysis,[1],does not induce significant hemolysis
same,solubility / aggregation state in solution,[2],soluble or exists in very small aggregates

# From PMC10870750 (ACS Polymers Au, 2023)
